Data: US12115209B2, “ROMO1-derived antimicrobial peptides including lysine substitution and variants thereof” (KOREA UNIVERSITY RESEARCH AND BUSINESS FOUNDATION, priority 2019, dated 2024)
Non-standard residues stand in square brackets, D forms with d. Residues, ends and D or L forms follow the SMILES beside them. No end group written: not given here.

What was measured:
Assay type in all cases: cell-based
mouse red blood cells = system: mouse red blood cells
Protocol: Red blood cells were diluted with PBS, centrifuged 3 times at 900 g for 10 minutes, and washed. 100 μl of the diluted red blood cell solution (10% v/v PBS) was dispensed into each well of a 96-well microplate, and KU-5878, KU-5878-K4, KU-5878-K4-D, melittin, magainin 2 or daptomycin was added to each well which was then filled with PBS to 200 μl, followed by reaction by incubation at 37° C. for 1 hour. Then, the supernatant of the reaction solution was separated, and the absorbance at a wavelength of 550 nm was measured using a spectrophotometer. As control, PBS and 0.1% Triton X-100 (Triton X-100) solution were used.
Based on the results of measurement of the absorbance, the degree of red blood cell destruction was calculated according to Equation 1 below, and the results of the calculation are shown in FIG. 6. % The intact RBC=100(%)−[(absorbance of peptide-treated red blood cell solution−absorbance of PBS-treated red blood cell solution)/(absorbance of Triton X-100-treated red blood cell solution−absorbance of PBS-treated red blood cell solution)×100(%)] [Equation 1]

[1] = system: Acinetobacter baumannii (ATCC 19606); conditions: ATCC 19606, 4 h
Protocol: (§1) Specifically, each type of bacteria was cultured in 3% (w/v) TSB (tryptic soy broth) liquid medium at 37° C. and 200 rpm for 4 hours, and then further cultured under the same conditions for 3 hours to a concentration of 5×10^6 CFU/ml. Strain solutions were prepared by diluting each of the further cultured strains with SP buffer to a final concentration of 2×10^5 CFU/ml.
(§2) Then, the KU-5878 peptide at varying concentrations (0 μg/ml to 300 μg/ml) was dispensed into each well of a 96-well microplate, and 100 μl (1×10^5 CFU/ml) of each of the prepared strain solutions was added thereto, mixed therewith, and allowed to react with the peptide in an incubator at 37° C. for 1 hour.
(§3) In addition, 10 μl of each reaction solution of the peptide and the strain was plated on the TS agar plate at a constant size, and incubated in an incubator at 37° C. for 18 hours, and then colony formation on the plate was checked. The minimum bactericidal concentration was defined as the minimum concentration of the peptide at which no colony was formed, and the experimental results are shown in Table 2 below.

[2] = system: Bacillus subtilis (ATCC 6633); conditions: ATCC 6633, 4 h
Protocol: as §1, §2, §3

[3] = system: Enterobacter aerogenes (ATCC 13048); conditions: ATCC 13048, 4 h
Protocol: as §1, §2, §3

[4] = system: Enterococcus faecalis (ATCC 19433); conditions: ATCC 19433, 4 h
Protocol: as §1, §2, §3

[5] = system: Enterococcus faecium (ATCC 19434); conditions: ATCC 19434, 4 h
Protocol: as §1, §2, §3

[6] = system: Escherichia coli (ATCC 25922); conditions: ATCC 25922, 4 h
Protocol: as §1, §2, §3

[7] = system: Klebsiella pneumoniae (ATCC 13883); conditions: ATCC 13883, 4 h
Protocol: as §1, §2, §3

[8] = system: Streptomyces sindenensis (ATCC 12392); conditions: ATCC 12392, 4 h
Protocol: as §1, §2, §3

Row | Compound | hemolysis of red blood cells (mouse red blood cells) | MBC value [1] | MBC value [2] | MBC value [3] | MBC value [4] | MBC value [5] | MBC value [6] | MBC value [7] | MBC value [8]
1 | CC[C@H](C)[C@H](NC(=O)CNC(=O)[C@H](CCSC)NC(=O)CNC(=O)[C@@H](NC(=O)[C@H](C)NC(=O)[C@H](CCSC)NC(=O)[C@H](Cc1ccccc1)NC(=O)[C@@H](NC(=O)CNC(=O)[C@H](Cc1ccccc1)NC(=O)[C@@H](CCCCN)NC(=O)CNC(=O)CNC(=O)[C@@H](CCCCN)NC(=O)[C@@H](CCCCN)NC(=O)[C@H](CCSC)NC(=O)[C@H](CCSC)NC(=O)[C@@H](CCCCN)NC(=O)[C@@H](N)CCCCN)[C@@H](C)O)[C@@H](C)CC)C(=O)N[C@@H](CCCNC(=N)N)C(=O)O [KU-5878-K4-D] (H-K[dK]MM[dK][dK]GG[dK]FGTFMAIGMGIR-OH) | little hemolysis |  |  |  |  |  |  |  | 
2 | KKMMKKGGKFGTFMAIGMGIR [KU-5878-K4] | little hemolysis | 4 µg/mL | 5 µg/mL | 5 µg/mL | 5 µg/mL | 5 µg/mL | 5 µg/mL | 5 µg/mL | 5 µg/mL
